According to patent US20050282893A1 (priority 2004, published 2005):
Where “and” joins values, the source holds several entries; their conditions need not be identical. Equal entries are not always repeated. Where two headings read alike, the source gives them in different places. Marks after values point to notes of the source that are not given here.

Key:
[1] = test system: RCC45; test: 5-Fluorouracil inhibition of BrdU incorporation (ELISA), RCC45; type: cell-based
Procedure: (§1) A study was performed using two renal cell carcinoma cells (RCC45 and RCC54). 5-Fluorouracil was used as the chemotherapeutic agent. Cells were treated with 5-fluorouracil for 96 hours, with and without PPS. The drug effect was measured as inhibition of the incorporation of a DNA precursor (bromodeoxyuridine or BrdU) using ELISA.

[2] = test system: RCC54; test: 5-Fluorouracil inhibition of BrdU incorporation (ELISA), RCC54; type: cell-based
Procedure: as §1

[3] = target: T1, telomerase (Homo sapiens, UniProt O14746); test: Modified TRAP assay, telomerase activity in cell lysate (cell extract); type: biochemical; conditions: mean ± SD, read-out: IC50, inhibition of telomerase activity
Procedure: (§2) Inhibition of telomerase activity in cell lysates and intact cells. The modified Telomeric Repeat Amplification Protocol (TRAP) assay (Gan, et al., Pharm. Res., 18:488-493, 2001) was used to detect telomerase activity in cell lysate. The telomerase activity in intact cells was measured using intracellular TRAP, as follows. Cells (1×10^5) were washed twice with PBS and centrifuged. The cell pellet was resuspended in 100 μl of serum-free RPMI 1640 containing 5 u/ml of Streptolysin O, 2 μM of TS primer, and 50 μM of dNTP, and incubated at room temperature for 5 min. The enzyme streptolysin O was used to increase the cell membrane permeability to the TS primer. Upon entering a cell, the TS primer was elongated by the intracellular telomerase in situ. The elongated TS primer was then isolated from the cells and used as the template for PCR amplification. Then 200 μl of RPMI 1640 medium containing 10% FBS was added to the cells to stop the permeating process. The mixture was incubated at 30° C. for 30 min to allow the extension of intracellular TS primer by telomerase. The cells were then lyzed and the cell lysates, which contained the already extended TS primer, was directly analyzed by TRAP.
Treatment Protocol. Treatment with suramin or AZT was initiated after cells were allowed to attach to the growth surface in culture flasks. […]
Target sequence in this assay (O14746 whole entry): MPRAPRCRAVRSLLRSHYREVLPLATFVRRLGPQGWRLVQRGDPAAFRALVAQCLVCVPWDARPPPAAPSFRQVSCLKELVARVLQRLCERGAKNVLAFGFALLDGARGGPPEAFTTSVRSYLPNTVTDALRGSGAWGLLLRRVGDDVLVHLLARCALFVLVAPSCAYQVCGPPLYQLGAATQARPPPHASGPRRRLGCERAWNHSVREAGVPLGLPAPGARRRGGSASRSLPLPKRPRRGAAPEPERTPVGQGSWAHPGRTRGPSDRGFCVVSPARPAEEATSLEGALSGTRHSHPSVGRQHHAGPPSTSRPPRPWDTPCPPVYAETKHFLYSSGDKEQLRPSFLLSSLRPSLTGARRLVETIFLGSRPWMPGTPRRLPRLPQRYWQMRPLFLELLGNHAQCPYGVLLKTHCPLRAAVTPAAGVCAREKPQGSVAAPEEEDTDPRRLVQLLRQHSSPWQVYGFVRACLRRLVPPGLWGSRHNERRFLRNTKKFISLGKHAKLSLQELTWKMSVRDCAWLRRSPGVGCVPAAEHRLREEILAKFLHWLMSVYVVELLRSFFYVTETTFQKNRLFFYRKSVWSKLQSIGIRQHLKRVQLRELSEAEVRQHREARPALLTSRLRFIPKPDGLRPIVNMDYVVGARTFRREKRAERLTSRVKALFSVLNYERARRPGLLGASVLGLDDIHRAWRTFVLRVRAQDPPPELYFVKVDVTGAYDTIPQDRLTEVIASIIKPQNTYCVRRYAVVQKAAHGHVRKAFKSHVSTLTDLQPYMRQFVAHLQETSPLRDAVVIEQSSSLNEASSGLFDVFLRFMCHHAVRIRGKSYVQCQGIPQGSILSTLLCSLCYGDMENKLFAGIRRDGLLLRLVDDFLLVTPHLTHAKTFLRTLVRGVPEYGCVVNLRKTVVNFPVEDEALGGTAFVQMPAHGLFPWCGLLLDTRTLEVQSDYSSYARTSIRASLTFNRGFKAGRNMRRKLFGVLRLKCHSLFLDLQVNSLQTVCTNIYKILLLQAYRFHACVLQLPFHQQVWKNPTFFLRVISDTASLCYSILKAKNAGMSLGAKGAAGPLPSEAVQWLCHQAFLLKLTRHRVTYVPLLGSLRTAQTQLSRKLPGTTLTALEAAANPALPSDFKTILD
Target sequence in this assay (O60832 whole entry partner): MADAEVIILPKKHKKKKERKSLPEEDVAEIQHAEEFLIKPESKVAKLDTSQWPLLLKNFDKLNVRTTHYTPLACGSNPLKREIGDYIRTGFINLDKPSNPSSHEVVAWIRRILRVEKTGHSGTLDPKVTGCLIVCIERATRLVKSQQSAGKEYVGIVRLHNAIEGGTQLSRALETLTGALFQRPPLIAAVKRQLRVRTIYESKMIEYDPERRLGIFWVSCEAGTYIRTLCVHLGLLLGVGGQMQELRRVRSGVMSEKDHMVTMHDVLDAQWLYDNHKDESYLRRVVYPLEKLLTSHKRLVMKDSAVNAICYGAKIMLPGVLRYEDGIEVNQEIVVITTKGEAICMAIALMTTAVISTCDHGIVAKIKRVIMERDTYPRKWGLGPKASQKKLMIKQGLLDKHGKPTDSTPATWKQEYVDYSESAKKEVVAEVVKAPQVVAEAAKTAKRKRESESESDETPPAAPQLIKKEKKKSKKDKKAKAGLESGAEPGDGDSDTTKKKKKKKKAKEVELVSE
Target sequence in this assay (Q9NPE3 whole entry partner): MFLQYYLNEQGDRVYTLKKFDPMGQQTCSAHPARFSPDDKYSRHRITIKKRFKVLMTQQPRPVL
Target sequence in this assay (Q9NX24 whole entry partner): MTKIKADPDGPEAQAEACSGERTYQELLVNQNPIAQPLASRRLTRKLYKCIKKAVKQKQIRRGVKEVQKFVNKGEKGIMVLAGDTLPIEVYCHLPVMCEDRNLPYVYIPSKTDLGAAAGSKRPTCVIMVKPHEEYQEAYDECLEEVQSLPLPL
Target sequence in this assay (Q9NY12 whole entry partner): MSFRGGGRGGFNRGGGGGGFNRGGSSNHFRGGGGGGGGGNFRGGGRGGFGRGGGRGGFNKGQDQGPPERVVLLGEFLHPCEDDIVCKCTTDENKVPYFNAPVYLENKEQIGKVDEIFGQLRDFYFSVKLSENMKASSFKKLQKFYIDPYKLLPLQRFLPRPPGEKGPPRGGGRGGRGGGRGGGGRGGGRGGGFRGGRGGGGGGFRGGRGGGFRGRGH

[4] = human patients; cited from earlier work
[5] = target: T1, telomerase; test: Intracellular TRAP, telomerase activity in intact cells; type: cell-based; conditions: mean ± SD, read-out: IC50, inhibition of telomerase activity
Target sequence in this assay (O14746 whole entry): as the sequence (O14746 whole entry) above
Target sequence in this assay (O60832 whole entry partner): as the sequence (O60832 whole entry partner) above
Target sequence in this assay (Q9NPE3 whole entry partner): as the sequence (Q9NPE3 whole entry partner) above
Target sequence in this assay (Q9NX24 whole entry partner): as the sequence (Q9NX24 whole entry partner) above
Target sequence in this assay (Q9NY12 whole entry partner): as the sequence (Q9NY12 whole entry partner) above

[6] = Intravesical suramin in dogs: bladder contents, bladder wall and plasma concentrations; type: in vivo; conditions: for concentration at 120 min: beagle, dog, bladder wall tissue, other: intravesical, 6 mg/ml
Procedure: Treatment protocol Five beagle dogs, weighing 9.0±0.4 kg, were used. The animals were cannulated in a cephalic vein for administration of anesthetics, and in a jugular vein for blood sampling. A urethral catheter was inserted for dose instillation and sampling of the bladder contents. […] Concentrations of the bladder contents and systemic plasma were sampled at frequent intervals for 120 minutes, at which time the bladder tissue was harvested and the animal sacrificed. Tissue sections of approximately 2 cm×2 cm surface area were cut from the bladder wall, and rapidly frozen on a flat stainless steel plate cooled on dry ice. The outer edges of the tissue samples were trimmed to avoid contamination with instillation fluid, and the frozen tissues cut into 40 μm sections parallel to the urothelial surface.

[7] = test system: FaDu tumor; test: Telomere length by FISH in FaDu tumors implanted in mice; type: in vivo
Procedure: Treatment protocol. FaDu cells (0.5˜1×10^6 cells in a volume of 100 μl) were implanted subcutaneously in male BALB/c nu/nu mice. […] The first dose was administered immediately after tumor implantation, with repeat doses given twice a week thereafter. […] Frozen tissue sections were analyzed for telomere length in individual cells using fluorescent in situ hybridization. About 10 microscope fields at 400-fold magnification were randomly chosen for each section, and the percentage of tumor cells with attenuated or lost telomere signals were counted.

[8] = test system: telomere length in FaDu and PC3 cells; test: Telomere length in cultured cells after prolonged treatment (TALA / FISH); type: cell-based, human; conditions: prolonged treatment (7-15 weeks)
Excerpt: Measurement of telomere length in cultured cells. Two methods were used to measure telomere length. The first method was a solution hybridization based telomere amount and length assay (TALA) (Gan, et al., Pharm. Res., 18:1655-1659, 2001) that measures the mean length of the terminal restriction fragments (TRF). The second method was fluorescence in situ hybridization (FISH) to detect telomere signal and to estimate the approximate length of individual telomere structures at the end of chromosomes. The FISH method is as described in U.S. patent application Ser. No. 09/587,662 and Gan, et al., 2001.
Treatment Protocol. Treatment with suramin or AZT was initiated after cells were allowed to attach to the growth surface in culture flasks. On the day of experiments, the culture medium was removed and replaced with inhibitor-containing medium.

[9] = in vivo; conditions: BALB/c nu/nu, mouse, plasma, intravenous, 10 mg/kg
[10] = test system: FaDu tumors; test: Low-dose suramin, tumor size in mice implanted with FaDu tumors; type: in vivo; conditions: one of six animals; suramin 10 mg/kg ip twice-weekly for 6 weeks
Procedure: Treatment Protocol. Immunosuppressed mice were injected subcutaneously in the thigh area with 5×10^5 FaDu cells. […] Tumor sizes were observed twice-weekly.

[11] = target: T1, telomerase; test: Telomerase IC50 determination, general method; type: biochemical; conditions: read-out: IC50 against telomerase
Excerpt: One method used to identify compounds of the invention that inhibit telomerase activity involves placing cells, tissues, or preferably a cellular extract or other preparation containing telomerase, in contact with several known concentrations of a test compound in a buffer compatible with telomerase activity. […] Other methods for determining the inhibitory concentration of a compound of the invention against telomerase can be employed as will be apparent to those of skill in the art based on the disclosure herein.
Target sequence in this assay (O14746 whole entry): as the sequence (O14746 whole entry) above

[12] = Suramin plasma pharmacokinetics in beagle dogs; type: in vivo; conditions: 6.75 mg/kg iv infusion over 30 minutes
Excerpt: Treatment protocol. […] The animals were cannulated in the cephalic veins of both front legs.

[13] = test system: FaDu cells; test: Paclitaxel cytotoxicity (SRB method) in hTR antisense-transfected FaDu cells; type: cell-based; conditions: Homo sapiens, paclitaxel 96 hours
Procedure: Effect of hTR antisense on the cytotoxic effect of […]. Two clones of cells that were stably transfected with the hTR antisense were studied. The cytotoxic effect of paclitaxel was quantified using the SRB method, which measures the total cellular proteins. The cells transfected with hTR antisense were treated with IPTG for 44 (clone#1) to 57 (clone #2) days, and then with paclitaxel for 96 hours.

[14] = test system: human pharynx FaDu xenografts
Procedure: Xenografts were formed by subcutaneous injection of 106 viable tumor cells in 0.1 ml physiologic saline in the right and left flank areas, and were allowed to grow for about 14 days to reach a size of >15 mm^3 before drug treatment was started. […] The saline control group received injections of 200 μl/day of physiological saline for five consecutive days. The paclitaxel group received injections of 10 mg/kg/day paclitaxel dissolved in Cremophor and ethanol (i.e., Taxol) in a volume of 200 μl for five consecutive days. […] Animal weights and tumor sizes were measured on days 1, 3, 6, 8, and 10 after initiation of the paclitaxel treatment.
The antitumor effect of the drug treatments was measured in three ways. The first was the reduction in tumor size. Tumor sizes were determined by first preparing a mold of the extruding tumor using Jeltrate, a rapidly setting molding material, and then preparing and weighing the countermold. Second, the apoptotic effect was measured. The animals were euthanized on day 10, and the tumors were harvested and fixed in formalin. Histologic sections of 5-micron thickness were prepared and stained with hematoxylin and eosin. The tumor sections were evaluated morphologically for tumor cell density, and density of apoptotic cells. Because apoptotic cells disappear over time, the density of non-apoptotic cells is a secondary indicator of apoptosis. Cell densities were determined by counting the number of cells in four randomly selected microscopic fields at 400× magnification, using image analysis procedures (Song, et al., Proc. Natl. Acad. Sci. USA, 97:8658-8663, 2000). Third, the ability of drug treatment to prolong the survival time was measured. For this study, the animals were monitored for 100 days, or until moribundity, defined by a tumor length exceeding 1.0 cm, was reached.

[15] = test system: stage IIIB/IV nonsmall cell lung cancer; conditions: 290 patients; cited from earlier work
[16] = target: T1, telomerase; test: Telomerase activity after PPS exposure, modified quantitative TRAP assay; type: cell-based
Procedure: as §2
Target sequence in this assay (O14746 whole entry): as above
Target sequence in this assay (O60832 whole entry partner): as the sequence (O60832 whole entry partner) above
Target sequence in this assay (Q9NPE3 whole entry partner): as the sequence (Q9NPE3 whole entry partner) above
Target sequence in this assay (Q9NX24 whole entry partner): as the sequence (Q9NX24 whole entry partner) above
Target sequence in this assay (Q9NY12 whole entry partner): as the sequence (Q9NY12 whole entry partner) above
Treatment Protocol. Treatment with PPS was initiated after cells were allowed to attach to the growth surface in culture flasks. On the day of experiments, the culture medium was removed and replaced with inhibitor-containing medium. Drug concentrations of 0, 0.1, 1, 10, 100, 1000 μg/ml of PPS were employed. Telomerase activity was measured by the modified quantitative TRAP assay.

[17] = fifteenth day of oral treatment, about 400 mg per meter squared per day; cited from earlier work
[18] = test system: renal cell carcinoma cells (RCC45 and RCC54); test: PPS single agent cytotoxicity, BrdU incorporation, renal cell carcinoma cells; type: cell-based
[19] = test system: anticoagulation; conditions: cited from earlier work

Compound: O=c1[nH]cc(F)c(=O)[nH]1 [5-fluorouracil]
- IC50 ([1]; RCC45, No PPS): 7.58 µM
- IC50 ([1]; RCC45, With 10 μg/ml PPS): 5.15 µM
- IC50 ([2]; RCC54, No PPS): 7.27 µM
- IC50 ([2]; RCC54, With 10 μg/ml PPS): 4.65 µM
- IC50 ([2]; RCC54, With 10 μg/ml PPS plus 30 μM suramin): 2.34 µM
- IC50 ([2]; RCC54, With 100 μg/ml PPS): 3.58 µM

Compound: Cc1ccc(C(=O)Nc2ccc(S(=O)(=O)O)c3cc(S(=O)(=O)O)cc(S(=O)(=O)O)c23)cc1NC(=O)c1cccc(NC(=O)Nc2cccc(C(=O)Nc3cc(C(=O)Nc4ccc(S(=O)(=O)O)c5cc(S(=O)(=O)O)cc(S(=O)(=O)O)c45)ccc3C)c2)c1 [Suramin, suramin]
- IC50 ([3]; MCF7, cell extract): 2.8 ± 1.5 µM
- IC50 ([3]; PC3, cell extract): 1.6 ± 0.7 µM
- half-life, first phase of triphasic plasma decline [4]: 0.229 days
- half-life, second phase of triphasic plasma decline [4]: 4.1 days
- half-life, third phase of triphasic plasma decline [4]: 78 days
- total body clearance [4]: 0.0095 liter/hour/m^2
- IC50 ([5]; FaDu, intact cell): 1.7 ± 1 µM
- IC50 ([5]; MCF7, intact cell): 1.4 ± 1.1 µM
- IC50 ([5]; PC3, intact cell): 2.3 ± 0.9 µM
- suramin concentration in the bladder contents ([6]; 120 minutes after intravesical 6 mg/ml): 3.6 mg/mL
- plasma concentrations ([6]; at all times, intravesical 6 mg/ml): less than 0.1 μg/ml
- concentration at 120 min ([6]; at 0 mm (urethral surface), 120 minutes, read-out: bladder wall tissue concentration): ~80000 ng/g
- concentration at 120 min ([6]; at approximately 2 mm depth, read-out: bladder wall tissue concentration): ~3000 ng/g
- concentration at 120 min ([6]; remainder of the bladder wall, read-out: bladder wall tissue concentration): ~3000 ng/g
- concentration at 120 min ([6]; summary of Example 13, read-out: concentrations in the targeted tissues after local administration): 5000 to 100000 ng/g
- bodyweight increase compared with saline ([7]; 10 mg/kg iv twice a week): undistinguishable rates of bodyweight increases
- tumor establishment rate ([7]; 10 mg/kg iv twice a week from implantation): 100%
- fraction of cells with a reduced or eliminated telomere signal ([7]; first two weeks of treatment, 10 mg/kg iv twice a week): approximately 10%
- fraction of cells with a reduced or eliminated telomere signal ([7]; week 3, 10 mg/kg iv twice a week): approximately 40%
- fraction of cells with a reduced or eliminated telomere signal ([7]; week 4, 10 mg/kg iv twice a week): 75%
- fraction of cells with a reduced or eliminated telomere signal ([7]; week 5, 10 mg/kg iv twice a week): over 80%
- fraction of cells with a reduced or eliminated telomere signal ([7]; week 6, 10 mg/kg iv twice a week): 95%
- telomere shortening [8]: about 30%
- concentration at 72 h [9]: ~10 µM and ~14000 ng/mL
- tumor outcome [10]: completely disappeared
- IC50 [11]: < 10 µM
- terminal half-life ([12]; 6.75 mg/kg): 13 days
- half-life ([12]; beagle, dog, plasma, read-out: terminal half-life (converted)): 13 days
- clearance ([12]; beagle, dog, plasma, read-out: total clearance (converted)): 2.1 mL/h/kg

Compound: CC(=O)O[C@H]1C(=O)[C@@]2(C)[C@H]([C@H](OC(=O)c3ccccc3)[C@]3(O)C[C@H](OC(=O)[C@H](O)[C@@H](NC(=O)c4ccccc4)c4ccccc4)C(C)=C1C3(C)C)[C@]1(OC(C)=O)CO[C@@H]1C[C@@H]2O [paclitaxel]
- IC50 ([13]; 96 h, +IPTG cells, read-out: IC50 of paclitaxel, clone #1): 0.00242 µM
- IC50 ([13]; 96 h, +IPTG cells, read-out: IC50 of paclitaxel, clone #2): 0.00253 µM
- IC50 ([13]; 96 h, +antisense cells (no IPTG), read-out: IC50 of paclitaxel, clone #1): 0.00246 µM
- IC50 ([13]; 96 h, +antisense cells (no IPTG), read-out: IC50 of paclitaxel, clone #2): 0.00287 µM
- IC50 ([13]; 96 h, +sense +IPTG cells, read-out: IC50 of paclitaxel, clone #1): 0.00256 µM
- IC50 ([13]; 96 h, +sense +IPTG cells, read-out: IC50 of paclitaxel, clone #2): 0.00221 µM
- IC50 ([13]; 96 h, Control cells, read-out: IC50 of paclitaxel, clone #1): 0.00204 µM
- IC50 ([13]; 96 h, Control cells, read-out: IC50 of paclitaxel, clone #2): 0.00205 µM
- IC50 ([13]; +antisense +IPTG cells (IPTG 44 days), read-out: IC50 of paclitaxel, clone #1): 0.0013 µM
- IC50 ([13]; +antisense +IPTG cells (IPTG 57 days), read-out: IC50 of paclitaxel, clone #2): 0.00133 µM
- median time to reach moribundity ([14]; Kaplan Meier analysis, monitored for 100 days): 42 days
- % Apoptotic cells per tumor ([14]; day 10 tumors, Mean ± SD): 30 ± 17%^a
- Number of apoptotic cells per 400x field ([14]; day 10 tumors, Mean ± SD): 66 ± 34^a
- Number of nonapoptotic cells per 400x field ([14]; day 10 tumors, Mean ± SD): 168 ± 53^a
- End-of-experiment body weight, % of pretreatment value ([14]; mouse, in vivo): 97 ± 6^a % of pretreatment value
- body weight loss compared to the pretreatment weight ([14]; mouse, in vivo): < 3%
- tumor-free survivors ([14]; of 12 animals): did not show tumor-free survivors
- toxicity-related death ([14]; single agents): no toxicity-related death

Compound: paclitaxel/carboplatin
- MST [15]: 8.1 months
- TTP [15]: 3.1 months
- complete response [15]: < 1%
- overall response rate [15]: about 17%

Compound: pentosan polysulfate [PPS]
- concentration resulting in 50% inhibition of telomerase activity ([16]; FaDu cells): 0.56 µg/mL
- concentration resulting in 50% inhibition of telomerase activity ([16]; SKOV-3 cells): 0.60 µg/mL
- concentrations resulting in 80% inhibition of telomerase activity ([16]; both cells (FaDu and SKOV-3)): less than 10 μg/ml
- concentrations resulting in 90% inhibition of telomerase activity ([16]; both cells (FaDu and SKOV-3)): less than 100 μg/ml
- concentrations required for 50% inhibition of telomerase activity ([16]; summary of Example 3): 0.5 to 0.6 µg/mL
- plasma concentrations [17]: 0.2 to 0.46 µg/mL
- IC50 of PPS as a single agent ([18]; 96 hours, BrdU incorporation): ~1,400 μg/ml
- cytotoxicity of PPS ([18]; at 10 and 100 μg/ml): no cytotoxicity
- concentrations at which anticoagulation is found [19]: above 1 μg/ml
